# Measured values as given in patent US20230242526A1 (Zentaur Therapeutics International Limited, priority 2020, published 2023).
# Test system: human ovarian carcinoma OVCAR3 cell line
# Assay: CyQUANT Direct cell proliferation assay, OVCAR-3
# Format: cell-based
# Settings: OVCAR-3, 168 h, 7 days
# Description: The human ovarian carcinoma OVCAR3 cell line (ATCC HTB-161™) or human breast squamous HCC1806 cell line (ATCC CRL 2335) were obtained from American Type Culture Collection (ATCC), and maintained in culture media according to the supplier's specification.
# The CyQUANT® Direct Cell Proliferation Assay Kit (Invitrogen™, catalog No. G35012) was utilized to test the inhibitory activities of the CDK2 inhibitors described in this disclosure against OVCAR3 or HCC1806 tumor cells.
# CyQUANT® Direct Cell Proliferation Assay: The spent medium from the purchased tumor cell culture plate was removed and the tumor cells were washed with PBS buffer twice. Trypsin (VWR catalog No. 0458-25G) was added to digest the tumor cells until tumor cells appeared round shaped and to dissociate adherent cells from the plate wall in which they are being cultured. Then RPMI-1640 media (HCC1806, Gibco™ catalog No, A10491-01) with 10% fetal bovine serum (FBS) (Hyclone™ catalog No. SV30160.03), or RPMI-1640 media (OVCAR-3, Gibco™ catalog No. 10370-021) with 20% FBS and 0.01 mg/mL insulin was added to stop the trypsin digestion reaction. The tumor cells were lightly agitated with a liquid transfer pipette to cause tumor cells suspended in the culture media. The cells were counted. The complete medium was used to prepare tumor cell suspension.
# OVCAR3 or HCC1806 cells were seeded at 40 μL/well in 384-well plates in growth media containing FBS and cultured 24 hours in the incubator at 37° C., 5% CO2. […] Compound solutions were added by Agilent Bravo liquid handler. […] The control wells contained the growth medium having 0.1% DMSO. Cells were incubated at 37° C., 5% CO2 for 7 days.
# CYQUANT Direct Cell Proliferation Assay (Molecular Probes, Eugene, Oreg.) was then performed following manufacturer's instructions to prepare the detection reagents. 50 μL of detection reagent was aliquot and added to each well and the cells were incubated at 37° C. for 1 hr.
# The cell culture plates were placed on TECAN M1000 microplate reader to detect the fluorescence intensity at 508 nm excitation and 527 nm emission wavelengths. Graphpad Prism 6.0 software was used for data processing, preparing cell growth curve, calculating percentage inhibition on cell growth. IC50 values were calculated by concentration-response curve fitting utilizing a four-parameter analytical method using GraphPad Prism software.
row,Compound,IC50 [nM]
1,"[2H]C(F)(F)c1cc2cnc(NC3CCN(S(C)(=O)=O)CC3)nc2n([C@@H]2CCC[C@@]2(C)O)c1=O [Comp. 28, (−)-6-(difluoromethyl-d)-8-((1R,2R)-2-hydroxy-2-methylcyclopentyl)-2-((1-(methylsulfonyl)piperidin-4-yl)amino)pyrido[2,3-d]pyrimidin-7(8H)-one]",32.5
2,"C[C@@]1(O)CCC[C@H]1n1c(=O)c(C(F)F)cc2cnc(NC3CCN(S(C)(=O)=O)CC3)nc21 [Comp. 5, (−)-6-(difluoromethyl)-8-((1R,2R)-2-hydroxy-2-methylcyclopentyl)-2-((1-(methylsulfonyl)piperidin-4-yl)amino)pyrido[2,3-d]pyrimidin-7(8H)-one, reference compound]",40.3
